Measurements: patent publication US4232014A, “Aminoalkylindans and use as hypotensive agents” (Marion Laboratories, Inc., priority 1979, dated 1980)

Legend:
animals = experiment: Anti-hypertensive effect when administered to animals parenterally or orally; assay type: in vivo; conditions: in words
[1] = Acute toxicity determination in mice (ALD50, ip); assay type: in vivo, female Swiss-Webster mice; conditions: in vivo, mouse, ip, 24 hours after administration
Method: (§1) Biological Methods--Acute toxicity determinations were performed in female Swiss-Webster mice, 15-24 g. Compounds were administered in aqueous solutions or as suspensions in 1% tragacanth by the intraperitoneal route to groups of three or more mice.

Mice = experiment: Acute toxicity determination in mice (ALD50, ip); assay type: in vivo, female Swiss-Webster mice; conditions: in words, compared with the other compounds of the series
Method: as §1

[2] = test system: Desoxycorticosterone Hypertensive Rats; experiment: Cardiovascular activity (blood pressure and heart rate) in desoxycorticosterone hypertensive rats; assay type: in vivo, male Charles River rats; conditions: 24 hr
Method: The indirect measurements of blood pressure and heart rate were determined in male Charles River rats made hypertensive (systolic blood pressure >159 mm Hg) by subcutaneously implanting a wax-formulated pellet containing 10 mg of desoxycorticosterone acetate. Systolic blood pressure was measured in the caudal arteries of prewarmed (40° C.), unanesthetized, restrained animals by a pneumatic pulse transducer placed distal to an automated tail pressure cuff and was recorded on a physiograph. Heart rate was determined from the amplified pulse waves recorded during the blood pressure measurements. Prior to the actual experiments, animals were accustomed to the measurement handling procedure several times during the preceding weeks.
Control systolic blood pressure and heart rates were determined in a group of usually six hypertensive rats on each day. A compound for evaluation was administered by intraperitoneal injection either in solution or as a suspension at 24 hr. intervals following injection. Mean values of the group for these parameters at a particular measurement period were calculated, and then the mean difference from control, along with its associated standard error, was calculated for each period. The statistical significance of the changes produced by a compound was tested by an analysis of variance and the Newman-Keuls a posteriori test when F was significant. A probability level of 0.05 or less was accepted as a significant change.
All compounds synthesized in this series, except V, were tested at a dosage level of 100 mg/kg. […] Another group of hypertensive rats was injected with 0.9% NaCl in a dose of 1 ml/kg. The latter group was included as a placebo group for the entire study.

[3] = test system: Desoxycorticosterone Hypertensive Rats; experiment: as above; assay type: in vivo, male Charles River rats
[4] = 10 mg/kg ip, solution in distilled water, 1 hr
[5] = 10 mg/kg ip, solution in distilled water, 2 hr
[6] = 10 mg/kg ip, solution in distilled water, 4 hr
[7] = 10 mg/kg ip, solution in distilled water, 24 hr
[8] = 25 mg/kg ip, solution in distilled water, 4 hr
[9] = 100 mg/kg ip, suspension in 1% tragacanth
[10] = 100 mg/kg ip, suspension in 1% tragacanth, 1 hr
[11] = 100 mg/kg ip, suspension in 1% tragacanth, 2 hr
[12] = 100 mg/kg ip, suspension in 1% tragacanth, 4 hr
[13] = 50 mg/kg ip, suspension in 1% tragacanth, 1 hr
[14] = 50 mg/kg ip, suspension in 1% tragacanth, 2 hr
[15] = 50 mg/kg ip, suspension in 1% tragacanth, 4 hr
[16] = 50 mg/kg ip, suspension in 1% tragacanth, 24 hr

Row | SMILES | LD50 at 24 h ([1]; suspension in 1% tragacanth) | Mean change in heart rate from control ± SE [2, 9] | Mean change in systolic blood pressure from control ± SE [2, 9] | Mean change in heart rate from control ± SE [3, 10] | Mean change in systolic blood pressure from control ± SE [3, 10] | Mean change in heart rate from control ± SE [3, 11] | Mean change in systolic blood pressure from control ± SE [3, 11] | Mean change in heart rate from control ± SE [3, 12] | Mean change in systolic blood pressure from control ± SE [3, 12] | other results
1 | Cc1cc2c(cc1CCN)CCC2 [5-aminoethyl-6-methylindan] |  |  |  |  |  |  |  |  |  | hypotensive properties (animals): has hypotensive properties; anti-hypertensive effect (animals; as base or acid addition salt, animals, parenterally or orally): exert an anti-hypertensive effect
2 | Cc1cc2c(cc1CCN)CCC2.Cl [Compound V, 5-Aminoethyl-6-methylindan HCl] |  |  |  |  |  |  |  |  |  | LD50 at 24 h ([1]; solution in distilled water): 79 to 89 mg/kg; relative toxicity in the mouse (Mice): relatively more toxic in the mouse; Mean change in heart rate from control ± SE ([2]; 25 mg/kg ip, solution in distilled water): -26 ± 14 beats per minute; Mean change in heart rate from control ± SE [3, 4]: +32 ± 17 beats per minute; Mean change in systolic blood pressure from control ± SE [3, 4]: -24 ± 8 mm Hg; Mean change in heart rate from control ± SE [3, 5]: +34 ± 14 beats per minute; Mean change in systolic blood pressure from control ± SE [3, 5]: -24 ± 4 mm Hg; Mean change in heart rate from control ± SE [3, 6]: +25 ± 11 beats per minute; Mean change in systolic blood pressure from control ± SE [3, 6]: -15 ± 5 mm Hg; Mean change in heart rate from control ± SE [3, 7]: -4 ± 11 beats per minute; Mean change in systolic blood pressure from control ± SE [3, 7]: -6 ± 4 mm Hg; Mean change in heart rate from control ± SE [3, 8]: +20 ± 21 beats per minute; Mean change in systolic blood pressure from control ± SE [3, 8]: -18 ± 4 mm Hg; Mean change in systolic blood pressure from control ± SE ([3]; 25 mg/kg ip, solution in distilled water, 24 hr): -11 ± 2 mm Hg
3 | COc1cc2c(cc1CCNC(=O)c1ccccc1)CCC2 [I, 5-Benzoylaminoethyl-6-methoxyindan] | > 1000 mg/kg | -67 ± 22 beats per minute | -13 ± 4 mm Hg | -20 ± 23 beats per minute | -18 ± 8 mm Hg | +9 ± 30 beats per minute | -24 ± 7 mm Hg | -14 ± 18 beats per minute | -12 ± 6 mm Hg | 
4 | COc1cc2c(cc1CCNC(=O)c1cc(OC)c(OC)c(OC)c1)CCC2 [II, 5-(3,4,5-Trimethoxybenzoyl)aminoethyl-6-methoxyindan] | > 1000 mg/kg | -4 ± 10 beats per minute | -16 ± 4 mm Hg | +23 ± 28 beats per minute | -27 ± 8 mm Hg | +10 ± 28 beats per minute | -35 ± 13 mm Hg | +47 ± 29 beats per minute | -12 ± 8 mm Hg | 
5 | COc1cc2c(cc1CCNC(=O)Cc1ccccc1)CCC2 [III, 5-Phenylacetylaminoethyl-6-methoxyindan] | 1000 to 1500 mg/kg | +61 ± 12 beats per minute | -13 ± 4 mm Hg | +13 ± 12 beats per minute | -32 ± 7 mm Hg | +54 ± 25 beats per minute | -24 ± 5 mm Hg | +19 ± 21 beats per minute | -21 ± 4 mm Hg | 
6 | COc1cc2c(cc1CCNC(=O)Cc1ccc(OC)c(OC)c1)CCC2 [IV, 5-(3,4-Dimethoxyphenylacetyl)aminoethyl-6-methoxyindan] | 500 to 1000 mg/kg | -27 ± 2 beats per minute | -19 ± 4 mm Hg | +23 ± 29 beats per minute | -10 ± 4 mm Hg | +57 ± 31 beats per minute | -10 ± 2 mm Hg | +14 ± 12 beats per minute | -19 ± 3 mm Hg | 
7 | C[C@](N)(Cc1ccc(O)c(O)c1)C(=O)O [Methyldopa, reference compound] |  |  |  |  |  |  |  |  |  | Mean change in heart rate from control ± SE [3, 13]: +106 ± 26 beats per minute; Mean change in systolic blood pressure from control ± SE [3, 13]: -31 ± 4 mm Hg; Mean change in heart rate from control ± SE [3, 14]: +104 ± 28 beats per minute; Mean change in systolic blood pressure from control ± SE [3, 14]: -50 ±4 mm Hg; Mean change in heart rate from control ± SE [3, 15]: +31 ± 39 beats per minute; Mean change in systolic blood pressure from control ± SE [3, 15]: -48 ± 6 mm Hg; Mean change in heart rate from control ± SE [3, 16]: -19 ± 12 beats per minute; Mean change in systolic blood pressure from control ± SE [3, 16]: -16 ± 5 mm Hg; change in mean systolic blood pressure from control levels ([3]; in words, hypertensive rats, reference standards): significant depressions in mean systolic blood pressure from control levels
8 | COc1ccc(CC(=O)NCCc2cc3c(cc2C)CCC3)cc1OC [VII, N-(3,4-Dimethoxyphenylacetyl)-5-aminoethyl-6-methylindan] | > 1000 mg/kg | +22 ± 12 beats per minute | -3 ± 7 mm Hg | +43 ± 10 beats per minute | -2 ± 6 mm Hg | +47 ± 12 beats per minute | -4 ± 9 mm Hg | +37 ± 15 beats per minute | +2 ± 5 mm Hg | 
9 | COc1ccc(CNCCc2cc3c(cc2C)CCC3)cc1OC.Cl [VIII, N-(3,4-Dimethoxybenzyl)-5-aminoethyl-6-methylindan hydrochloride] | 140 to 178 mg/kg | -14 ± 10 beats per minute | -17 ± 2 mm Hg | -55 ± 17 beats per minute | -58 ± 4 mm Hg | 0 ± 14 beats per minute | -60 ± 7 mm Hg | +4 ± 8 beats per minute | -47 ± 2 mm Hg | 
10 | Cc1cc2c(cc1CCNC(=O)Cc1ccccc1)CCC2 [VI] | > 1000 mg/kg | +2 ± 17 beats per minute | -3 ± 10 mm Hg | +17 ± 17 beats per minute | -7 ± 7 mm Hg | +24 ± 11 beats per minute | -2 ± 6 mm Hg | +23 ± 13 beats per minute | -1 ± 7 mm Hg | 
